This note sets out measurements from ChEMBL document CHEMBL1201862, “PubChem BioAssay data set” (2004).

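Growth conditions: 96-well plates. Treatment: test compound, 48 hours, 5 concentrations. Analysis: linear interpolation between bracketing concentrations; unreached endpoints set to highest concentration. GI50 = concentration required for 50% inhibition of growth.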 Activity calls are given as the source filed them. Cut-off read from the data, not from the text of the source: active = GI50 up to about 1.1 µM and inactive = higher.

Common to all, as to experiment: NCI tumour cell line growth inhibition, 48 h
Assay [1] concerns NCI/ADR-RES.
Assay [2] relates to Hs-578T.
In assay [3] the test system is HOP-92.
The subject of assay [4] is HL-60.
The subject of assay [5] is UACC-257.
Assay [6] deals with KM12.
Assay [7] relates to SK-MEL-5.
The test system of assay [8] is DMS-114.
Assay [9] relates to OVCAR-4.
The subject of assay [10] is 786-0.
Assay [11] relates to HOP-62.
Assay [12] deals with RXF 393.
Assay [13] relates to MDA-N.
The test system of assay [14] is T47D.
Assay [15] relates to K562.
For assay [16], the system named is LOX IMVI.
The subject of assay [17] is HCT-15.
Assay [18] deals with Malme-3M.
Assay [19] has as its system CAKI-1.
For assay [20], the system named is SW-620.

Consider `O=P1(N(CCCl)CCCl)NCCCO1` (stereo not given) [CYCLOPHOSPHAMIDE ANHYDROUS], for which the GI50 was > 250 µM (inactive) in assay [1]; > 250 µM (inactive) in [2]; > 246 µM (inactive) in assay [3]; 183 µM (inactive) in assay [4]; 211 µM (inactive) in assay [5]; > 238 µM (inactive) in assay [6]. For the same molecule, the GI50 in assay [7] is > 242 µM (inactive); in [8], > 250 µM (inactive); in [9], > 250 µM (inactive); in [10] it was > 250 µM (inactive); in assay [11], > 247 µM (inactive); in assay [12], > 250 µM (inactive). In addition, the GI50 in [13] was > 250 µM (inactive); in assay [14], > 88.7 µM (inactive); in assay [15], 213 µM (inactive); in [16], 248 µM (inactive); in assay [17], above 250 µM; in [18] it was > 250 µM (inactive). The GI50 in assay [19] was > 192 µM (inactive); in assay [20] it was > 250 µM (inactive).
